Laboratory results reported in paper PMC7972453, “The allosteric modulation of complement C5 by knob domain peptides” (eLife, 2021).
Entries after “also recorded” stand apart in the source; their conditions may differ. Where two headings read alike, the source gives them in different places. Bridges are numbered along the chain shown (N, C = ends). Where no end group is shown, it is not given here.

Tests used:
human C5 = molecular target: T1, human C5 (Homo sapiens, UniProt P01031); assay: SPR multi-cycle kinetics, binding to C5
T1 construct: tissue TCS Biosciences (serum); host or cells: human serum
Procedure: Kinetics were measured using a Biacore 8K (GE Healthcare, Amersham, UK) with a CM5 chip, which was prepared as follows: 1-ethyl-3-(−3-dimethylaminopropyl) carbodiimide hydrochloride (EDC)/N-hydroxysuccinimide (NHS) was mixed at 1:1 ratio (flow rate, 10 µL/min; contact time, 30 s), and human C5 at 1 µg/mL in pH 4.5 sodium acetate buffer was injected over flow cell one only (flow rate, 10 µL/min; contact time, 60 s). Final immobilisation levels in the range of 2000–3000 RUs were obtained to yield theoretical Rmax values of ~50–60 RU. […] After each injection, the surface was regenerated with two sequential injections of 2 M MgCl2 (flow rate, 30 µL/min; contact time, 30 s). Binding to the reference surface was subtracted, and the data were fitted to a single-site binding model using Biacore evaluation software.
Table 2.6. Validation of molecular interactions by peptide mutagenesis analysis.
Summary of SPR multi-cycle kinetics

C5 activation by the CP = assay: Complement activation assays, classical pathway (overall); format: biochemical; settings: C5a release, C5b neo-epitope formation and C9 deposition ELISAs; human serum
Procedure: For functional characterisation of the peptides, we performed complement assays for CP and AP activation in human serum, assessing C5b neo-epitope formation and C5a release (schematically presented in Figure 1A, B), in combination with orthogonal ELISAs, measuring C3b and C9 deposition.
For the C3 and C9 ELISAs, microtiter plates (MaxiSorp; Nunc) were incubated overnight at 4°C with 50 µL of a solution of in 75 mM sodium carbonate (pH 9.6) containing either 2.5 µg/mL aggregated human IgG (Sigma-Aldrich, Gillingham, UK) for CP or 20 µg/mL zymosan (Sigma-Aldrich, Gillingham, UK) for AP. As a negative control, wells were coated with 1% (w/v) bovine serum albumin (BSA)/PBS. […] Complement activation was assessed through detection of deposited complement activation factors using specific antibodies against C3b (rat anti-human C3d HM2198, Hycult, Uden, The Netherlands) and C9 (goat anti-human C9, A226, Complement Technologies Tyler, TX) at a 1:1000 dilution. Bound primary antibodies were detected with […]-conjugated goat anti-rat (ab97057, Abcam, Cambridge, UK) or rabbit anti-goat (P0449, Agilent Dako, Santa Clara, CA) secondary antibodies at a 1:1000 dilution. Bound HRP-conjugated antibodies were detected using TMB One solution (Eco-TEK – manufactured by Bio-TEK, Winooski, VT) with absorbance measured at 450 nm. […]

[1] = test system: rabbit erythrocytes (alternative pathway haemolysis); assay: Inhibition of alternative pathway haemolysis; format: cell-based, rabbit erythrocytes; normal human serum; settings: 4.5% serum
Procedure: GVB^++ or Mg EGTA buffers, which had been supplemented with 2.5% glucose (w/v), were used for the CP and AP assays, respectively. For the AP, 150 µL of rabbit erythrocytes (TCS Biosciences, Botolph Claydon, UK) were washed twice, by addition of 1 mL of buffer and centrifugation at 800 ×g for 1 min, and finally resuspended in 500 µL of buffer. For the CP, 150 µL sheep erythrocytes (TCS Biosciences, Botolph Claydon, UK) were washed twice with 1 mL of buffer and sensitised with a 1/1000 dilution of rabbit anti-sheep red blood cell stroma antibody (S1389, Sigma Aldrich, Gillingham, UK). After a 30°C/30 min incubation, with shaking, the cells were rewashed and resuspended with 500 µL of buffer. Serial dilutions of peptide were prepared in the respective buffers and normal human serum was added at 1% for the CP and 4.5% for the AP (corresponding to CH50 of the serum). Also, 90 µL of peptide–serum mixtures were plated into a V-bottom 96-well microtiter plate (Corning) and 10 µL of erythrocytes were added. Plates were incubated for 30 min at 37°C, with shaking. Finally, 50 µL of buffer was added, the plates centrifuged at 800 ×g, and 80 µL of supernatant was transferred to an ELISA plate (Nunc) and absorbance measured at 405 nm.
Table 1.8. Inhibition of alternative pathway haemolysis.

T1 sequence (P01031 678-1676 limits assumed): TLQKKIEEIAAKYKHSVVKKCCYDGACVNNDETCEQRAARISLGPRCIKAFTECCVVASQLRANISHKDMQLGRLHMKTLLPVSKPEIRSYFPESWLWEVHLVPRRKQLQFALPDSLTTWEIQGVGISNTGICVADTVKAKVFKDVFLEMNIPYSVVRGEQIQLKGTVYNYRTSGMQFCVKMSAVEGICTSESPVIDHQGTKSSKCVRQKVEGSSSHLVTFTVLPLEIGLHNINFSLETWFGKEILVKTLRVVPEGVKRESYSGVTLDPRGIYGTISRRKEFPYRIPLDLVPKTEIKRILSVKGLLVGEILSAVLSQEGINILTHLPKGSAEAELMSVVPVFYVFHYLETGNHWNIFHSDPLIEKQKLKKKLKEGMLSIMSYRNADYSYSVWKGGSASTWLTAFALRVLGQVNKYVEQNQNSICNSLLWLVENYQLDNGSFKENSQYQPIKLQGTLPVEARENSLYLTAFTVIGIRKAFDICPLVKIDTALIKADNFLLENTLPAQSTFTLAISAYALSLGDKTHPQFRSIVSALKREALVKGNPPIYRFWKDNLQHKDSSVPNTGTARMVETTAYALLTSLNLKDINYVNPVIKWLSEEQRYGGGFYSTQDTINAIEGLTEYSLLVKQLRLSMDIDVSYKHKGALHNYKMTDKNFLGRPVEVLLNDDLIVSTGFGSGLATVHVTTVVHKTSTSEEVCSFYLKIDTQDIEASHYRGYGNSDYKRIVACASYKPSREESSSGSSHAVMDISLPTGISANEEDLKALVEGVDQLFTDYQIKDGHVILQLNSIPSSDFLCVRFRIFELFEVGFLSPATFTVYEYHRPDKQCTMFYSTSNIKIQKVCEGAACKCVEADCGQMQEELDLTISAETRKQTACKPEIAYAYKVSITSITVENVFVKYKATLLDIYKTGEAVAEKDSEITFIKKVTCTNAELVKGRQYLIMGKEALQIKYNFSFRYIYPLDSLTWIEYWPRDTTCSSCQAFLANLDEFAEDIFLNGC
T1 sequence (P01031 19-673 limits assumed): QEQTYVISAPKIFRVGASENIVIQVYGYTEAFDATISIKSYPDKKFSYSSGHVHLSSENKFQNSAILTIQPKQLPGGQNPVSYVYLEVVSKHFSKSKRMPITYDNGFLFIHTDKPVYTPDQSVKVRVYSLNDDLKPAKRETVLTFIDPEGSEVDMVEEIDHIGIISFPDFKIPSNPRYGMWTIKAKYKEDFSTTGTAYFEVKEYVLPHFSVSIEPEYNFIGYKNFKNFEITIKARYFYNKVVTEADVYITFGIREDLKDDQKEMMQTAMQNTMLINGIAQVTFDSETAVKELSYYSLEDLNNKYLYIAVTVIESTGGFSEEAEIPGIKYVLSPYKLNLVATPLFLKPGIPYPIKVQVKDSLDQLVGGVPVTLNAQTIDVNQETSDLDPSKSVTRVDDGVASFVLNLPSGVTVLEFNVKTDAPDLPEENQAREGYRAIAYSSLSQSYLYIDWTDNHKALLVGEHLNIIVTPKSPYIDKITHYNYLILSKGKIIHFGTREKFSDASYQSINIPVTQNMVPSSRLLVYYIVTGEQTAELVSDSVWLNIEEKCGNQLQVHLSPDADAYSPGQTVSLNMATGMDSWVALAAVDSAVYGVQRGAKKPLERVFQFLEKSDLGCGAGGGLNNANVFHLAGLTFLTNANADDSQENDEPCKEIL

## SVCPDGFDWGYGCAAGSSRFCTRHDWCCYDERADSHTYGFCTGNRVENLYFQ (disulfide 3-28, 13-21, 27-41) [K8]
Human C5; Biacore 8K, mean of n=3
  mean stoich. ratio: 0.25
Human C5; pH 7.4, read-out: mean koff, Biacore 8K, HBS-EP pH 7.4, mean of n=3
  koff: 0.000385 s⁻¹
Human C5; pH 7.4, read-out: mean kon, Biacore 8K, CM5 chip, HBS-EP pH 7.4, mean of n=3
  kon: 70500 M⁻¹ s⁻¹
Human C5; replicate n=1
  koff: 0.000372 s⁻¹
  kon: 71000 M⁻¹ s⁻¹
  stoich. ratio: 0.28
Human C5; replicate n=2
  koff: 0.000422 s⁻¹
  kon: 72600 M⁻¹ s⁻¹
  stoich. ratio: 0.23
Human C5; replicate n=3
  koff: 0.000361 s⁻¹
  kon: 67800 M⁻¹ s⁻¹
  stoich. ratio: 0.24
C5 activation by the CP
  inhibition of C5 activation, CP assays (in words): partially inhibiting both the AP and CP
[1]
  inhibition of AP haemolysis (in words): did not show efficacy in the AP haemolysis assay, below 10 µM; also recorded: did not show activity in the AP assay below 10 µM
